According to patent US8771973B2, “Methods for treating bleeding disorders using sulfated polysaccharides” (Baxter Healthcare S.A., priority 2004, dated 2014):
Marks after values point to notes of the source that are not given here.

Legend:
Hem-A mice = experiment: Survival after tail clip, PPS-treated Hem-A mice; format: in vivo
Description: (§1) Hem-A mice (homozygous for the exon 16 FVIII KO allele) were licensed from John Hopkins University, and Hem-B mice (homozygous for the exon 1-3 FIX KO) were licensed from University of North Carolina at Chapel Hill. All animal procedures were performed according to “Guide for the Care and Use of Laboratory Animals” (National Research Council. Guide for the care and use of laboratory animals. Washington, D.C.: National Academy Press; 1996) and all procedures were reviewed and approved by an institutional animal care and use committee.
(§2) A. PPS Efficacy in Hem-A and Hem-B Mice The efficacy of PPS in improving clotting in Hem-A and Hem-B mice was tested. Hem-A and Hem-B male or female mice were administered PPS at a dose of 0.02, 0.06, or 0.2 mg/kg or saline vehicle subcutaneously twice daily for […]. On the morning of the fifth day after dosing, the tail was clipped 1 cm from the tip, and behavior and survival were monitored for the next 20-24 hours.

Hem-B mice = experiment: Survival after tail clip, PPS-treated Hem-B mice; format: in vivo; details: 0.06 mg/kg s.c. twice daily 4.5 days, vehicle 25, p = 0.07
Description: as §1, §2

Pentosan Polysulphate Sodium [PPS]
% Survival (20 hours post-cut) (Hem-A mice; 0.02 mg/kg s.c. twice daily 4.5 days, vehicle 25): 20 ^ %
% Survival (20 hours post-cut) (Hem-A mice; 0.06 mg/kg s.c. twice daily 4.5 days, vehicle 25, p = 0.07): 44 ^# %
improvement in survival (Hem-A mice; 0.06 mg/kg, not statistically significant (0.05<p<0.1)): nearly two-fold improvement in survival
% Survival (20 hours post-cut) (Hem-A mice; 0.2 mg/kg s.c. twice daily 4.5 days, vehicle 25): 40 ^ %
% Survival (20 hours post-cut) (Hem-B mice): 44 ^# %
